The source made the active and inactive calls.
Columns and labels:
[1] = target: T1, DNA dC->dU-editing enzyme APOBEC-3A (Homo sapiens, UniProt P31941); experiment: Dose Response confirmation of small molecule APOBEC3A DNA Deaminase Inhibitors via a fluorescence-based single-stranded DNA deaminase assay. [Related pubchem assays (depositor defined):AID493011, AID493024]; format: functional
[2] = target: T2, DNA dC->dU-editing enzyme APOBEC-3G (Homo sapiens, UniProt Q9HC16); format: functional
[3] = target: Glyceraldehyde-3-phosphate dehydrogenase (Homo sapiens, UniProt P04406)
Sequence of Glyceraldehyde-3-phosphate dehydrogenase (P04406 whole entry): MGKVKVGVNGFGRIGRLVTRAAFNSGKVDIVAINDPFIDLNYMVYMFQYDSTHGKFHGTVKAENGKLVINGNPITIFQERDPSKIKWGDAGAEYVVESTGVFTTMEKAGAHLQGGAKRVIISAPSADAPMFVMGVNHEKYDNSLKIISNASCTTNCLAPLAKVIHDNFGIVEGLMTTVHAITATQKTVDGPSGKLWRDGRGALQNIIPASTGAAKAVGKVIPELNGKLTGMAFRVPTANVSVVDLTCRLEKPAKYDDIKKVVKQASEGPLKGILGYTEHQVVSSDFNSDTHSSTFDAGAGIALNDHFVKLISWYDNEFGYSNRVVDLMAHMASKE

cells [4] = format: functional
[5] = Vero E6 cell cytotoxicity, dose response, cytotoxicity control for non-replicating M. tuberculosis project, secondary assay (AID 492998); format: functional, VeroE6; details: Vero C1008
[6] = THP-1 cell cytotoxicity, dose response, cytotoxicity control for non-replicating M. tuberculosis project (AID 489025); format: functional
[7] = target: T3, Acyl-homoserine lactone acylase PvdQ (Pseudomonas aeruginosa (strain LESB58), UniProt Q9I194); experiment: PvdQ acylase enzyme activity blockers – biochemical, fluorescence, plate reader and imaging, cherry-picks, dose response (AID 493231)
T3 sequence (Q9I194 whole entry): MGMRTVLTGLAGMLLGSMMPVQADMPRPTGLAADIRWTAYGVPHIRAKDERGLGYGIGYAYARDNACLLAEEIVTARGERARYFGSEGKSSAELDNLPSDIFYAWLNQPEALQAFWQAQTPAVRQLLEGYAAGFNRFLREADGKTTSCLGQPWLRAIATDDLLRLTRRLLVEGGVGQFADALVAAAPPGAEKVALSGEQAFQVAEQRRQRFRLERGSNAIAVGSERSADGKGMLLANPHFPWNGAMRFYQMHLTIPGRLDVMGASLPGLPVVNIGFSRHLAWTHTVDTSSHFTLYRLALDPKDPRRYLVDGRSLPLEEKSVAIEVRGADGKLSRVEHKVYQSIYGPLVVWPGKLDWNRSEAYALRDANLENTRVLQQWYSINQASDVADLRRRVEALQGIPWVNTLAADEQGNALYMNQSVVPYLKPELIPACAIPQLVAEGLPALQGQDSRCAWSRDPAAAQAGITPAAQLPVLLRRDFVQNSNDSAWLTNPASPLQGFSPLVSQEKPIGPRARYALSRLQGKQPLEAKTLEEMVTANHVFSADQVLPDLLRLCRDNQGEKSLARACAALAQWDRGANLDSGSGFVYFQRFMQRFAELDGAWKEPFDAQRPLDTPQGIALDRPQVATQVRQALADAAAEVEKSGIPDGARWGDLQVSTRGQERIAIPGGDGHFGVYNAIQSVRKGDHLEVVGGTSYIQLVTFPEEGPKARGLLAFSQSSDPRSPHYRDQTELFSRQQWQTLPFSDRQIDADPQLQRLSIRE

[8] = target: T4, Voltage-gated N-type calcium channel alpha-1B subunit/Amyloid beta A4 precursor protein-binding family A member 1 (Homo sapiens, UniProt Q00975+Q02410); experiment: disruptors of Mint-PDZ/N-type channel peptide interaction – biochemical, HTRF, SAR follow-up (AID 2489); format: functional
T4 sequence (Q00975 whole entry): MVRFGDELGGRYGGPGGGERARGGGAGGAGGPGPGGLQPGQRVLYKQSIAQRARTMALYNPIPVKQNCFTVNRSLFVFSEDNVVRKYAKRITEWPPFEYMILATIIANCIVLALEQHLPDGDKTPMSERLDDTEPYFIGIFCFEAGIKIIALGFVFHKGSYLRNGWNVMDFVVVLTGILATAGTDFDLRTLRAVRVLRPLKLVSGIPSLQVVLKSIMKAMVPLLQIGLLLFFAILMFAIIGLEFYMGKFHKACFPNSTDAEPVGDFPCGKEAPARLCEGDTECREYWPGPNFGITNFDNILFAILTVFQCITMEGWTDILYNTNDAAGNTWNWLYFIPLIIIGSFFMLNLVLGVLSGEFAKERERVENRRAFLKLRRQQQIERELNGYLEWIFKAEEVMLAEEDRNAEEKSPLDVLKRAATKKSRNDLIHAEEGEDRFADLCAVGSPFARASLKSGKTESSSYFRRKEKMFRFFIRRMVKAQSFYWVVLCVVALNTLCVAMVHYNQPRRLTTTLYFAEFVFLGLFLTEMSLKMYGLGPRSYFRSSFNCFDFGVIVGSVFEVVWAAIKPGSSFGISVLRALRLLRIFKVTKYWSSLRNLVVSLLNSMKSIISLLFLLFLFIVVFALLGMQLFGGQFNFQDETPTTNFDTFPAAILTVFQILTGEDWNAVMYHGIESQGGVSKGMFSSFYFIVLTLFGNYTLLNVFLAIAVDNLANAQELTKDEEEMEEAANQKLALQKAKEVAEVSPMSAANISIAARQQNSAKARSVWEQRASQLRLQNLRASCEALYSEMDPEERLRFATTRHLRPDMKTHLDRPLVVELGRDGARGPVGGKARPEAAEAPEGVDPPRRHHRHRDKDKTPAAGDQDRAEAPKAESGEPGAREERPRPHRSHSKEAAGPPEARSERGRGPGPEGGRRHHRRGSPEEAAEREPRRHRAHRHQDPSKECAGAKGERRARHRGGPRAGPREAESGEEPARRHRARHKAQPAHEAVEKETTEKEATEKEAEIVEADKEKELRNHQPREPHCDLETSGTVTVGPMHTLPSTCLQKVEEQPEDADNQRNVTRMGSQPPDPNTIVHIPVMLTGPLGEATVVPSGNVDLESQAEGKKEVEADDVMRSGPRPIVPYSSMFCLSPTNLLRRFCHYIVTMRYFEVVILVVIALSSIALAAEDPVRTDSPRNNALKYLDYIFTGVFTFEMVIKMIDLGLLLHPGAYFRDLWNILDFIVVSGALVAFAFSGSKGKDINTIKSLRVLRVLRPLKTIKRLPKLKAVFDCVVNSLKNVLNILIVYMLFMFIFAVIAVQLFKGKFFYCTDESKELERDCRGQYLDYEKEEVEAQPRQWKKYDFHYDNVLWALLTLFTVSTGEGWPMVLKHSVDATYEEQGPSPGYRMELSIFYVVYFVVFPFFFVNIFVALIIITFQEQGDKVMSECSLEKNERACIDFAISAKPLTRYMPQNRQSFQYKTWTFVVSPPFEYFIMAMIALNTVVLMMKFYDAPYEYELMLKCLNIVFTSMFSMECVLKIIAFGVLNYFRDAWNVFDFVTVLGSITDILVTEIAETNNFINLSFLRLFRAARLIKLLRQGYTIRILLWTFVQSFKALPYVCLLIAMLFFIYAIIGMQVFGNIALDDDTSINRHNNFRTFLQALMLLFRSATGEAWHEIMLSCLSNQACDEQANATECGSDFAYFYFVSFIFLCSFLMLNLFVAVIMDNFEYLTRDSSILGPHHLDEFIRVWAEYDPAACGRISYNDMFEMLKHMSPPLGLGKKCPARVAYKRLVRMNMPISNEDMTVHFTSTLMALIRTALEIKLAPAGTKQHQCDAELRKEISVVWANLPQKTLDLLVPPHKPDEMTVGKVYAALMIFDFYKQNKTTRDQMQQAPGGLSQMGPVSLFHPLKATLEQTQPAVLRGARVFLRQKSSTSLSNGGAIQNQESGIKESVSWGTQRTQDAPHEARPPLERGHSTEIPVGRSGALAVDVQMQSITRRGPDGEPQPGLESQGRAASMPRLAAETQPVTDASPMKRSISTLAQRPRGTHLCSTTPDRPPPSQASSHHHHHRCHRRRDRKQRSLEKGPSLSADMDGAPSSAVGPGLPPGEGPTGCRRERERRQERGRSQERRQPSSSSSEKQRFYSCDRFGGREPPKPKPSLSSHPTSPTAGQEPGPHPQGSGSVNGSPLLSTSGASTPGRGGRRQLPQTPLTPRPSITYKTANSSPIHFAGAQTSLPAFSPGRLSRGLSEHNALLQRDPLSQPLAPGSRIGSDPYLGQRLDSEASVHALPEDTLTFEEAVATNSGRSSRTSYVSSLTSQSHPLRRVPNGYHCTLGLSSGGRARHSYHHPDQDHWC
T4 sequence (Q02410 whole entry): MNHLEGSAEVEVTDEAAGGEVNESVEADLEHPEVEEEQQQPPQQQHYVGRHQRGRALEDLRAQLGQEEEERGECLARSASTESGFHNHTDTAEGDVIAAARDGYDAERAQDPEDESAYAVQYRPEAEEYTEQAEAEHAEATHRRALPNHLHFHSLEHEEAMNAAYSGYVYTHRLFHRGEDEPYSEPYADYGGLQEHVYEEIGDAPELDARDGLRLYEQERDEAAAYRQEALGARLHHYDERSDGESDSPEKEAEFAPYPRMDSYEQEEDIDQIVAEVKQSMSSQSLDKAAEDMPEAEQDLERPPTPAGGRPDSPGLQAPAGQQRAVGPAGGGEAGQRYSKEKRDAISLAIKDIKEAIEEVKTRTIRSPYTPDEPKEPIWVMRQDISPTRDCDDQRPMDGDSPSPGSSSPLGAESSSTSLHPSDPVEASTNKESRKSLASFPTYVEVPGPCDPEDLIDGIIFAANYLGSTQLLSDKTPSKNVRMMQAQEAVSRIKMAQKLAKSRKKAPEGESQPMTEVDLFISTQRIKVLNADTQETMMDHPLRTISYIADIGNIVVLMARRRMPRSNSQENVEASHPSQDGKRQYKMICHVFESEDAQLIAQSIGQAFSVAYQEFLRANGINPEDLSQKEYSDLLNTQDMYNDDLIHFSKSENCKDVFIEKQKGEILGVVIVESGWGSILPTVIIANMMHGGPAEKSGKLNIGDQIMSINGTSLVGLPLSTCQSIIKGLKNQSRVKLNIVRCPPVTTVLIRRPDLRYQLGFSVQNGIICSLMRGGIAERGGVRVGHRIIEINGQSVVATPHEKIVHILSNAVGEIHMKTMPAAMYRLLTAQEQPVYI

[9] = target: T4, Voltage-gated N-type calcium channel alpha-1B subunit/Amyloid beta A4 precursor protein-binding family A member 1; experiment: disruptors of Mint-PDZ/N-type channel peptide interaction – biochemical, HTRF, set 2, SAR follow-up (AID 434980); format: functional
[10] = target: T2, DNA dC->dU-editing enzyme APOBEC-3G; experiment: Dose Response confirmation of small molecule APOBEC3G DNA Deaminase Inhibitors via a fluorescence-based single-stranded DNA deaminase assay. [Related pubchem assays (depositor defined):AID493012, AID493028]; format: functional
[11] = target: T1, DNA dC->dU-editing enzyme APOBEC-3A; experiment: A3A deaminase inhibition for selectivity – biochemical, dose response (AID 504722); format: functional
[12] = target: Glucose-6-phosphate 1-dehydrogenase (Homo sapiens, UniProt P11413); experiment: inhibition of Homo sapiens G6PD, dose series – biochemical, fluorescence, selectivity assay for P. falciparum G6PD inhibitor project, dose response (AID 504792); format: functional
Sequence of Glucose-6-phosphate 1-dehydrogenase (P11413 whole entry): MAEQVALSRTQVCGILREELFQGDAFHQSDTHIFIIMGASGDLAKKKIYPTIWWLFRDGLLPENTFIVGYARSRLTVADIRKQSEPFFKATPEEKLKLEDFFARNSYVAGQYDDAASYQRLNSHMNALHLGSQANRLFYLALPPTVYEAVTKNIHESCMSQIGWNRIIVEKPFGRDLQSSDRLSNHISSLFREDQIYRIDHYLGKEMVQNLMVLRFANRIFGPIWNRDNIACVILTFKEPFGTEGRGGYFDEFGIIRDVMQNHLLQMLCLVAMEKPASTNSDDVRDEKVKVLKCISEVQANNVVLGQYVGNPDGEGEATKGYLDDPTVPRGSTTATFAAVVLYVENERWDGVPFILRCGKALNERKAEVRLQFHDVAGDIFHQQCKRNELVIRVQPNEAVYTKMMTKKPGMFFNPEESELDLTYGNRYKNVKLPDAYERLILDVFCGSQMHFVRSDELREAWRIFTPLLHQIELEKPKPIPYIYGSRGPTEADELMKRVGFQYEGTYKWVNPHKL

[13] = target: Peroxisome proliferator-activated receptor gamma/Nuclear receptor coactivator 1 (Homo sapiens, UniProt P37231); format: functional;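 further: agonist potency as compounds enhance coactivator SRC-1 recruitment to PPARgamma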
[14] = target: Peroxisome proliferator-activated receptor gamma/Nuclear receptor coactivator 3 (Homo sapiens, UniProt P37231); format: functional;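 further: agonist potency for raising coactivator recruitment to the receptor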
[15] = target: Peroxisome proliferator-activated receptor gamma/Nuclear receptor coactivator 2 (Homo sapiens, UniProt P37231); format: functional;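 further: agonist potency for raising coactivator recruitment to the receptor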
[16] = target: T5, Heat shock factor protein 1 (Mus musculus, UniProt P38532); experiment: enhancement of HSF1-driven luciferase signal – cell-based, NIH3T3, luminescence, dose retest, confirmation (AID 435004); format: functional;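 further: stress induced by proteasome inhibitor MG132 added 30 min after compound; luciferase reporter driven by HSF1 response element in NIH3T3 cells; actives raise luminescence as potentiators of the MG132 stress response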
T5 sequence (P38532 whole entry): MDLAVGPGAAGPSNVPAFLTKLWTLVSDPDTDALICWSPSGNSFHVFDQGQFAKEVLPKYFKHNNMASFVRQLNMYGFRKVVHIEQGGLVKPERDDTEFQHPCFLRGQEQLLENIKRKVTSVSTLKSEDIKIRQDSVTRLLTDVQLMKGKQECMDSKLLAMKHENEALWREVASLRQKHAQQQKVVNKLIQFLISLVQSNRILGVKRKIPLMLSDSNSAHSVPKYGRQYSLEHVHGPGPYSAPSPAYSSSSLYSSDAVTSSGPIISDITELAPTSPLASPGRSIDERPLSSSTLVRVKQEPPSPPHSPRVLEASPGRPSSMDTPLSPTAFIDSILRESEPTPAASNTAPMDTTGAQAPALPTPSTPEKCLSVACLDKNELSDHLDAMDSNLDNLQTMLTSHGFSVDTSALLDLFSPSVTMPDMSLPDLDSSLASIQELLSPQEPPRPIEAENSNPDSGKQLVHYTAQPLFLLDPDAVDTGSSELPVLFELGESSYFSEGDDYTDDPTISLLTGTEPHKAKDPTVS

[17] = viability loss in THP-1 monocytes – THP-1 cells, cytotoxicity control for Vif-APOBEC3G degradation inhibitor project, dose response (AID 1117359); format: functional; details: THP-1
Leucine aminopeptidase = target: T6, Leucine aminopeptidase (Plasmodium falciparum 3D7, UniProt Q8IL11); experiment: P. falciparum M17LAP inhibitors, primary screen, biochemical, fluorogenic H-Leu-NHMec substrate, 1536-well (AID 1619); format: functional
T6 sequence (Q8IL11 whole entry): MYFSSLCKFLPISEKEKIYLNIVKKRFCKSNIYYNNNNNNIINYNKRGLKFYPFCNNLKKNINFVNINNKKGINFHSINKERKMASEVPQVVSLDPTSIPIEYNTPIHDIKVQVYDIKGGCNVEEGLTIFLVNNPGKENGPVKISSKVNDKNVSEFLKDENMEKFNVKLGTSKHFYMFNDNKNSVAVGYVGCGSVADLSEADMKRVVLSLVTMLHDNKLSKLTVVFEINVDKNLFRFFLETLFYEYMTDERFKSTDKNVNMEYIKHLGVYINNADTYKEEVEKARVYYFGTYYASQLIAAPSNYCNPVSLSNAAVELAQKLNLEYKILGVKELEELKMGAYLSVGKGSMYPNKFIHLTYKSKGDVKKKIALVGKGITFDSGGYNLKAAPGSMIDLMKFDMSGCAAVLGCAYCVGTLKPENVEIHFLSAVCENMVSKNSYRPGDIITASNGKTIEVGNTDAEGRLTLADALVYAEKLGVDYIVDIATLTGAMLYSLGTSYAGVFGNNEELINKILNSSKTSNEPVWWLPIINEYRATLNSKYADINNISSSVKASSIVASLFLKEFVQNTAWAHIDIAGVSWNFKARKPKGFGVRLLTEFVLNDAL

[18] = mitochondrial function rescue without frataxin homolog – Friedreich's ataxia, plus single-dose screen, dose response (AID 1465); format: functional;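 further: yeast depleted of Yfh1p frataxin homolog grown on glycerol needing respiration; WST-1 tetrazolium dye reduction as measure of cellular dehydrogenase metabolic activity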
[19] = target: T4, Voltage-gated N-type calcium channel alpha-1B subunit/Amyloid beta A4 precursor protein-binding family A member 1; format: protein assay
[20] = target: T4, Voltage-gated N-type calcium channel alpha-1B subunit/Amyloid beta A4 precursor protein-binding family A member 1; format: protein assay; remark: listed apart in the source
[21] = target: Neurotensin receptor type 1 (Homo sapiens, UniProt P30989); format: functional;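 further: Image-based confirmatory dose-response assay measuring agonist activity at NTR1; NTR1-expressing U2OS osteosarcoma cells imaged for beta-arrestin GFP spot formation; agonist potency where compounds increase beta-arrestin recruitment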
Sequence of Neurotensin receptor type 1 (P30989 whole entry): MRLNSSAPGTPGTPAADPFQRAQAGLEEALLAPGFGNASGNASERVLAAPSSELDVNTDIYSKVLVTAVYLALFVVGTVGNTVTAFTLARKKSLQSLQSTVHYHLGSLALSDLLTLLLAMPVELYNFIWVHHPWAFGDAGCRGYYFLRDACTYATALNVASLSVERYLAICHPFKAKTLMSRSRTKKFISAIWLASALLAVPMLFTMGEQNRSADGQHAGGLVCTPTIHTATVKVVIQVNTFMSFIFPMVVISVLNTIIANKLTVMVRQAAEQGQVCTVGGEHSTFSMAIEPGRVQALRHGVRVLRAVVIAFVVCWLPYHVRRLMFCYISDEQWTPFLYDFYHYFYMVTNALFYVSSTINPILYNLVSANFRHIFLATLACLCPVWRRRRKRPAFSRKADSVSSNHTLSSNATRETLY

cells [22] = experiment: cells
[23] = target: T7, C-C chemokine receptor type 6 (Homo sapiens, UniProt P51684); experiment: antagonism of CCR6 beta-arrestin recruitment – cell-based, luminescent beta-arrestin readout, dose response (AID 504728); format: functional
T7 sequence (P51684 whole entry): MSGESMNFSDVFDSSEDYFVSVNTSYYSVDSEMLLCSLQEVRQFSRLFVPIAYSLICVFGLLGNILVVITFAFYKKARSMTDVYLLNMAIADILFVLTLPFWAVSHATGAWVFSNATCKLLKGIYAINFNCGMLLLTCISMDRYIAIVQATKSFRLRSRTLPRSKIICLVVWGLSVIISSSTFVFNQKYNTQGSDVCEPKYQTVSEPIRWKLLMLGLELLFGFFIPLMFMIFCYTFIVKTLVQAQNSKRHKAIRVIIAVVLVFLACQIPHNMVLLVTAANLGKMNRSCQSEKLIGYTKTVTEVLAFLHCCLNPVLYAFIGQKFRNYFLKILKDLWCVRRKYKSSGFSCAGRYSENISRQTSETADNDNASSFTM

Beta-galactosidase = Beta-galactosidase (Escherichia coli, UniProt Q8VNN2); experiment: detection-enzyme interference by beta-gal modulators – biochemical, E. coli enzyme, set 3, artefact control for CCR6 antagonist project, dose response (AID 504712); format: functional
Hexokinase = target: T8, Hexokinase (Trypanosoma brucei, UniProt Q38C41); experiment: Confirmation assay for inhibitors of Trypanosoma brucei hexokinase 1-Analogue-first series. [Related pubchem assays (depositor defined):AID1430, AID1632, AID2516, AID2560, AID2579, AID2600, AID449725, AID492951]; format: functional
T8 sequence (Q38C41 whole entry): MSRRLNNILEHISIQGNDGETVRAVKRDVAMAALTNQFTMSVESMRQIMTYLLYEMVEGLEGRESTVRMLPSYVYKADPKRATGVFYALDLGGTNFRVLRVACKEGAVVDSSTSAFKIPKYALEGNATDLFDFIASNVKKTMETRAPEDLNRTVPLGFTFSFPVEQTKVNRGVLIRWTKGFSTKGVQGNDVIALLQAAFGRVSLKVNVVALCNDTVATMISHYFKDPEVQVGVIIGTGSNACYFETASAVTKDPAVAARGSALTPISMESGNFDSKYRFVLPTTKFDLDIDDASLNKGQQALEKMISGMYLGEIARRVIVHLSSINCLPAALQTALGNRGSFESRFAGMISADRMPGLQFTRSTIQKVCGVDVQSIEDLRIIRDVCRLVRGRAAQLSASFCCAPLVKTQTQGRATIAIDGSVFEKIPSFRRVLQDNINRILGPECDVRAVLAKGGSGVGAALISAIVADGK

T1 sequence (P31941 whole entry): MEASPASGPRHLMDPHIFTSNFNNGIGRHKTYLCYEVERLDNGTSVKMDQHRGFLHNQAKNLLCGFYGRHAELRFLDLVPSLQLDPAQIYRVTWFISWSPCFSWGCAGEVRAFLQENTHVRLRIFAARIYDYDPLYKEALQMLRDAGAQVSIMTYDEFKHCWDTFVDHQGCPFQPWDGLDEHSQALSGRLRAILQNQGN
T2 sequence (Q9HC16 whole entry): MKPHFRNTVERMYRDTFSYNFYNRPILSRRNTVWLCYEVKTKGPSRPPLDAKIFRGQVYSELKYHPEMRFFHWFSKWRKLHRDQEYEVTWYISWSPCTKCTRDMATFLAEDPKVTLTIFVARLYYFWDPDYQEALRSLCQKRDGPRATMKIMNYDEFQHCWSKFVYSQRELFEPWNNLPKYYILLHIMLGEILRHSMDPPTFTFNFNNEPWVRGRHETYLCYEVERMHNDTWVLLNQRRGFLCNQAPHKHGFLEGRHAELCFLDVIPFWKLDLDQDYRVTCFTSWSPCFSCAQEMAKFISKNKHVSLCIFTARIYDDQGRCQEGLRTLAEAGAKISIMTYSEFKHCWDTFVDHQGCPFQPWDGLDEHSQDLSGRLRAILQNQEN

CCOc1ccc(CN2C(=O)c3ccccc3C2=O)cc1C(=O)NC1CC(C)(C)NC(C)(C)C1
IC50 [1]: 2.87 µM (active) | IC50 [2]: 3.18 µM (active)

CCN1CCN(C2=C(Cl)C(=O)N(c3cccc(C(F)(F)F)c3)C2=O)CC1
IC50 [3]: > 50 µM (inconclusive)

CC(C)CCCN1C(=O)NC(=O)/C(=C\c2ccc[nH]2)C1=O
IC50 (cells [4]): 1.22 µM (active) | CC50 [5]: > 20 µM (active) | CC50 [6]: > 40 µM (active)

Cc1cc(C)cc(N2CC(c3nc4ccccc4n3C)CC2=O)c1 (stereo not drawn)
IC50 [1]: 9.16 µM (active) | IC50 [2]: 16.1 µM (active)

N#CC(Sc1ccccn1)c1ccc(Cl)cc1 (stereo not drawn)
AC50 [7]: 7.09 µM (active)

CC(=O)Oc1ccc(N2C(=O)C3C4C=CC(O4)C3C2=O)cc1 (stereo not drawn)
IC50 [8]: > 56.8 µM (inactive) | IC50 [9]: 18.8 µM (active)

O=C(NCCCN1CCOCC1)c1sc2cc([N+](=O)[O-])ccc2c1Cl
IC50 [10]: 6.34 µM (active) | IC50 [11]: > 100 µM (inactive) | IC50 [12]: > 80 µM (inactive)

N#Cc1ccc(-c2ccc(Cl)cc2)nc1Oc1ccc(F)cc1
EC50 [13]: > 79.4 µM (not active) | EC50 [14]: > 79.4 µM (not active) | EC50 [15]: > 79.4 µM (not active) | EC50 [16]: > 260 µM (inconclusive)

Oc1ccc(NCc2ccccc2OCc2ccccc2)cc1
EC50 [13]: > 79.4 µM (not active) | EC50 [14]: > 79.4 µM (not active) | EC50 [15]: > 79.4 µM (not active) | IC50 [12]: > 80 µM (inactive) | CC50 [17]: 22.7 µM (active)

CCN1CCN(c2ccc(NC(=O)c3ccc4c(c3)OCCO4)cc2C)CC1
IC50 [1]: 4.49 µM (active) | IC50 [2]: 4.12 µM (active)

COCCNC(=O)/C(C#N)=C/c1ccc(N2CCOCC2)o1
IC50 (Leucine aminopeptidase): 113 µM (active) | EC50 [18]: > 100 µM (active)

CC(C)NC(=O)COC(=O)/C=C/c1ccco1
IC50 [19]: 9.71 µM (active) | IC50 [20]: > 50 µM (inactive)

O=C(/C=C/c1cccnc1)c1ccc(F)c(F)c1
EC50 [21]: 11.4 µM (active)

Cc1ccc(-n2c(=O)c3sccc3n(Cc3cc(=O)n4ccccc4n3)c2=O)cc1
IC50 (cells [22]): 26.4 µM (active)

COc1ccc(NC2c3ncccc3C(=O)N2Cc2cccs2)cc1 (stereo not drawn)
IC50 (cells [22]): 45.6 µM (active)

CC1(C)C2CC[C@]3(C)C(CC=C4[C@@H]5C[C@@](C)(CO)[C@@H]6C[C@@]5(CC[C@]43C)C(=O)O6)[C@@]2(C)CC[C@@H]1O (stereo partly drawn)
IC50 [23]: > 66.6 µM (inactive) | IC50 (Beta-galactosidase): > 66.6 µM (inactive)

O=C(Nc1cc(Cl)ccc1C(=O)O)c1ccc(C2CC2)cc1
IC50 (Hexokinase): 5.77 µM (active)

COc1ccc2c(=O)n(-c3ccccc3)sc2c1
IC50 (Hexokinase): 3 µM (active)

Cc1cccc(N2C(=O)C3C(C2=O)C2(C)C=CC3(C)O2)c1 (stereo not drawn)
IC50 [8]: 27.6 µM (active) | IC50 [9]: 8.93 µM (active)

CCCCCCCC(=O)Nc1cc(Cl)ccc1C(=O)O
IC50 (Hexokinase): > 25 µM (inactive)

Cc1ccsc1/C=N/n1c(S)nnc1-c1ccccn1
IC50 [10]: 4.89 µM (active) | IC50 [11]: > 100 µM (inactive)

COc1ccc(/N=C(\C)C2=C(O)SCC2=O)cc1
AC50 [7]: 12.4 µM (active)

COc1cc(C)c(C)cc1S(=O)(=O)Nc1cccnc1
IC50 [3]: > 100 µM (not active)

— ChEMBL document CHEMBL1201862, “PubChem BioAssay data set” (2004)
